# Laboratory results taken from ChEMBL document CHEMBL1201862, “PubChem BioAssay data set” (2004).
#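 1) Cells in 96-well plates. 2) Compound, 48 h, 5 concentrations. 3) Linear interpolation between surrounding doses. 4) Unreached endpoint = highest concentration. At the GI50, growth is halved.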 The source made the active and inactive calls. Rule as the data show it: active = GI50 up to about 1.1 µM and inactive = higher.
# How the values were obtained:
# Assay in all cases: NCI tumour cell line growth inhibition, 48 h
# [1] = tested on: BT-549
# [2] = tested on: EKVX
# [3] = tested on: HCT-15
# [4] = tested on: HT-29
# [5] = tested on: Hs-578T
# [6] = tested on: M14
# [7] = tested on: MCF7
# [8] = tested on: MDA-MB-435
# [9] = tested on: MDA-N
# [10] = tested on: Malme-3M
# [11] = tested on: NCI-H226
# [12] = tested on: NCI-H23
# [13] = tested on: NCI-H460
# [14] = tested on: NCI-H522
# [15] = tested on: NCI/ADR-RES
# [16] = tested on: OVCAR-4
# [17] = tested on: PC-3
# [18] = tested on: RPMI-8226
# [19] = tested on: RXF 393
# [20] = tested on: SK-MEL-28
SMILES,GI50 [1],GI50 [2],GI50 [3],GI50 [4],GI50 [5],GI50 [6],GI50 [7],GI50 [8],GI50 [9],GI50 [10],GI50 [11],GI50 [12],GI50 [13],GI50 [14],GI50 [15],GI50 [16],GI50 [17],GI50 [18],GI50 [19],GI50 [20]
O=CN1CCN(C(=O)c2ccc(Cl)cc2)C1=S,25.4 µM (inactive),15.6 µM (inactive),21.3 µM,17.2 µM (inactive),49.5 µM (inactive),14.6 µM (inactive),2.79 µM (inactive),14.8 µM (inactive),16.6 µM (inactive),24.5 µM (inactive),43.5 µM (inactive),23 µM (inactive),21.6 µM (inactive),14.8 µM (inactive),36.5 µM (inactive),17.3 µM (inactive),15.7 µM (inactive),3.35 µM (inactive),16.8 µM (inactive),19.1 µM (inactive)
COC(=O)C1=C(C(=O)OC)C2OC1C1C2C2(C)C(C)=C(C)C1(C)[S+]2[O-] (centres undefined),10.4 µM (inactive),11.5 µM (inactive),4.18 µM,6.47 µM (inactive),20.8 µM (inactive),8.59 µM (inactive),6.28 µM (inactive),6.73 µM (inactive),11.3 µM (inactive),6.98 µM (inactive),8.02 µM (inactive),6.93 µM (inactive),15.9 µM (inactive),2.14 µM (inactive),23.7 µM (inactive),12.1 µM (inactive),16.1 µM (inactive),4.73 µM (inactive),3.37 µM (inactive),19.1 µM (inactive)
COc1ccc(CCNCCCC2c3ccccc3-c3ccccc32)cc1OC,20.4 µM (inactive),16.3 µM (inactive),14.8 µM,5.06 µM (inactive),20.1 µM (inactive),4.8 µM (inactive),6.7 µM (inactive),14.7 µM (inactive),16.7 µM (inactive),13.6 µM (inactive),15.4 µM (inactive),15 µM (inactive),7.16 µM (inactive),15.9 µM (inactive),17.2 µM (inactive),15.8 µM (inactive),16.3 µM (inactive),6.3 µM (inactive),11.3 µM (inactive),9.44 µM (inactive)
Oc1cc(-c2ccccc2)nc2c(S)cccc12,> 100 µM (inactive),,> 100 µM,> 100 µM (inactive),> 100 µM (inactive),> 100 µM (inactive),> 100 µM (inactive),> 100 µM (inactive),> 100 µM (inactive),> 100 µM (inactive),17.2 µM (inactive),> 100 µM (inactive),> 100 µM (inactive),> 100 µM (inactive),> 100 µM (inactive),> 100 µM (inactive),47.3 µM (inactive),> 100 µM (inactive),35.9 µM (inactive),> 100 µM (inactive)
N#C/C(=C\c1ccc2[nH]ccc2c1)C(=O)c1ccc(O)c(O)c1,24.5 µM (inactive),57.9 µM (inactive),51.4 µM,69 µM (inactive),44.2 µM (inactive),> 63.1 µM (inactive),34.8 µM (inactive),71.8 µM (inactive),> 100 µM (inactive),> 65.8 µM (inactive),> 71.3 µM (inactive),> 100 µM (inactive),37 µM (inactive),29.4 µM (inactive),49.4 µM (inactive),> 64.3 µM (inactive),> 100 µM (inactive),> 73.5 µM (inactive),> 94 µM (inactive),> 100 µM (inactive)
Cc1cccc2c1NC(=O)/C2=N\Nc1ccccc1[N+](=O)[O-],20.4 µM (inactive),1.58 µM (inactive),15.3 µM,4.35 µM (inactive),4.85 µM (inactive),19.4 µM (inactive),4.6 µM (inactive),22.6 µM (inactive),20.1 µM (inactive),9.64 µM (inactive),10.3 µM (inactive),6.67 µM (inactive),6.9 µM (inactive),0.871 µM (active),4.74 µM (inactive),4.05 µM (inactive),10.9 µM (inactive),10 µM (inactive),3.66 µM (inactive),37.3 µM (inactive)
C=C1CC2(OC1=O)c1ccccc1C=Cc1ccccc12,1.83 µM (inactive),8.85 µM (inactive),3.25 µM,2.44 µM (inactive),2.51 µM (inactive),4.25 µM (inactive),2.3 µM (inactive),1.68 µM (inactive),1.96 µM (inactive),4.94 µM (inactive),5.08 µM (inactive),6.32 µM (inactive),11.2 µM (inactive),1.76 µM (inactive),1.64 µM (inactive),4.4 µM (inactive),5.79 µM (inactive),1.42 µM (inactive),3.19 µM (inactive),4.34 µM (inactive)
